Assay results published in PMC8364686, “Safety, tolerability, pharmacokinetics and pharmacodynamics of single oral doses of BI 187004, an inhibitor of 11beta-hydroxysteroid dehydrogenase-1, in healthy male volunteers with overweight or obesity” (Clinical Diabetes and Endocrinology, 2021).

Test: Plasma pharmacokinetics of BI 187004 after single oral doses (LC–MS/MS)
Settings: male, human, plasma, po; for concentration at 10 h: planned time 10 h; for concentration at 12 h: planned time 12 h; for concentration at 36 h: planned time 36 h; for concentration at 48 h: planned time 48 h; for concentration at 72 h: planned time 72 h; for concentration at 96 h: planned time 96 h; for concentration at 0.5 h: planned time 0.5 h; for concentration at 1 h: planned time 1 h; for concentration at 1.5 h: planned time 1.5 h; for concentration at 2 h: planned time 2 h; for concentration at 2.5 h: planned time 2.5 h; for concentration at 3 h: planned time 3 h; for concentration at 4 h: planned time 4 h; for concentration at 5 h: planned time 5 h; for concentration at 6 h: planned time 6 h; for concentration at 8 h: planned time 8 h
[1] = 40 mg, BI 187004 plasma concentrations, 40 mg single oral, Max
[2] = 40 mg, BI 187004 plasma concentrations, 40 mg single oral, Mean
[3] = 40 mg, BI 187004 plasma concentrations, 40 mg single oral, Median
[4] = 40 mg, BI 187004 plasma concentrations, 40 mg single oral, Min
[5] = 40 mg, BI 187004 plasma concentrations, 40 mg single oral, gMean
[6] = 80 mg, BI 187004 plasma concentrations, 80 mg single oral, Max
[7] = 80 mg, BI 187004 plasma concentrations, 80 mg single oral, Mean
[8] = 80 mg, BI 187004 plasma concentrations, 80 mg single oral, Median
[9] = 80 mg, BI 187004 plasma concentrations, 80 mg single oral, Min
[10] = 80 mg, BI 187004 plasma concentrations, 80 mg single oral, gMean

Description: This was a randomized, double-blind, placebo-controlled, single rising dose study conducted at a single center in Germany. […] Follow-up on an ambulatory basis was performed between 11 and 15 days after study drug administration. […] At the time of use the oral solution for dosing was prepared using the PFOS and a co-supplied aqueous solvent containing HP-beta-cyclodextrin 100 mg/mL. The lowest dose level solutions were prepared by further dilution of the lower concentration solution with additional solvent.
For each accepted run, the acceptance criteria for the calibration standards and quality controls were met.

Compound `N#Cc1ccc2c(c1)[C@H]1CCCN(C(=O)c3ccc4[nH]cnc4c3)[C@H]1C2` [BI 187004] has a concentration at 10 h [1] of 1140 nM, a concentration at 10 h [2] of 825 nM and a concentration at 10 h [3] of 815 nM. The concentration at 10 h [4] was 467 nM, the concentration at 10 h [5] was 796 nM and the concentration at 12 h [1] was 984 nM. For the same compound, the concentration at 12 h [2] was 683 nM, the concentration at 12 h [3] was 690 nM and the concentration at 12 h [4] was 359 nM. For the same compound, the concentration at 12 h [5] was 650 nM, the concentration at 24 h (40 mg, BI 187004 plasma concentrations, 40 mg single oral, planned time 24 h, Max) was 625 nM and the concentration at 24 h (40 mg, BI 187004 plasma concentrations, 40 mg single oral, planned time 24 h, Mean) was 353 nM. For the same compound, the concentration at 24 h (40 mg, BI 187004 plasma concentrations, 40 mg single oral, planned time 24 h, Median) was 335 nM, the concentration at 24 h (40 mg, BI 187004 plasma concentrations, 40 mg single oral, planned time 24 h, Min) was 169 nM and the concentration at 24 h (40 mg, BI 187004 plasma concentrations, 40 mg single oral, planned time 24 h, gMean) was 321 nM. For the same compound, the concentration at 36 h [1] was 377 nM, the concentration at 36 h [2] was 163 nM and the concentration at 36 h [3] was 119 nM. It also gave a concentration at 36 h [4] of 51.5 nM, a concentration at 36 h [5] of 129 nM and a concentration at 48 h [1] of 234 nM. It also gave a concentration at 48 h [2] of 95.6 nM, a concentration at 48 h [3] of 66.2 nM and a concentration at 48 h [4] of 30.8 nM. It also gave a concentration at 48 h [5] of 73 nM, a concentration at 72 h [1] of 83.4 nM and a concentration at 72 h [2] of 32 nM. It also gave a concentration at 72 h [3] of 22.1 nM, a concentration at 72 h [4] of 8.48 nM and a concentration at 72 h [5] of 24.3 nM. For the same compound, the concentration at 96 h [1] was 41.4 nM, the concentration at 96 h [2] was 15.5 nM and the concentration at 96 h [3] was 11.1 nM. It also gave a concentration at 96 h [4] of 5.05 nM, a concentration at 96 h [5] of 12.2 nM and a concentration at 24 h (40 mg, C24 gMean (%gCV), 40 mg single oral dose) of 321 nM. For the same compound, the AUC(0-inf) (80 mg) was 51.1 µM·h, the AUC(0-t) (80 mg) was 43.1 µM·h and the Cmax (80 mg) was 2460 nM. The Tmax (80 mg) was 2.25 h, the Vd/F (80 mg) was 113 L and the half-life (80 mg) was 1030 min. The concentration at 0.5 h [6] was 4480 nM, the concentration at 0.5 h [7] was 1780 nM and the concentration at 0.5 h [8] was 1020 nM. It also gave a concentration at 0.5 h [9] of 304 nM, a concentration at 0.5 h [10] of 1150 nM and a concentration at 1 h [6] of 4770 nM. It also gave a concentration at 1 h [7] of 2490 nM, a concentration at 1 h [8] of 2300 nM and a concentration at 1 h [9] of 771 nM. It also gave a concentration at 1 h [10] of 2120 nM, a concentration at 1.5 h [6] of 4150 nM and a concentration at 1.5 h [7] of 2500 nM. It also gave a concentration at 1.5 h [8] of 2540 nM, a concentration at 1.5 h [9] of 958 nM and a concentration at 1.5 h [10] of 2220 nM. It also gave a concentration at 2 h [6] of 3590 nM, a concentration at 2 h [7] of 2330 nM and a concentration at 2 h [8] of 2400 nM. It also gave a concentration at 2 h [9] of 1000 nM, a concentration at 2 h [10] of 2130 nM and a concentration at 2.5 h [6] of 3200 nM. The concentration at 2.5 h [7] was 2350 nM, the concentration at 2.5 h [8] was 2650 nM and the concentration at 2.5 h [9] was 1200 nM. For the same compound, the concentration at 2.5 h [10] was 2200 nM, the concentration at 3 h [6] was 3340 nM and the concentration at 3 h [7] was 2240 nM. For the same compound, the concentration at 3 h [8] was 2470 nM, the concentration at 3 h [9] was 1050 nM and the concentration at 3 h [10] was 2070 nM. For the same compound, the concentration at 4 h [6] was 3200 nM, the concentration at 4 h [7] was 2200 nM and the concentration at 4 h [8] was 2460 nM. The concentration at 4 h [9] was 936 nM, the concentration at 4 h [10] was 2020 nM and the concentration at 5 h [6] was 3210 nM. The concentration at 5 h [7] was 1980 nM, the concentration at 5 h [8] was 2040 nM and the concentration at 5 h [9] was 905 nM. It also gave a concentration at 5 h [10] of 1840 nM, a concentration at 6 h [6] of 2460 nM and a concentration at 6 h [7] of 1740 nM. The concentration at 6 h [8] was 1870 nM, the concentration at 6 h [9] was 930 nM and the concentration at 6 h [10] was 1650 nM. It also gave a concentration at 8 h [6] of 2840 nM, a concentration at 8 h [7] of 1820 nM and a concentration at 8 h [8] of 1690 nM. For the same compound, the concentration at 8 h [9] was 1100 nM, the concentration at 8 h [10] was 1740 nM and the concentration at 10 h [6] was 2570 nM. The concentration at 10 h [7] was 1600 nM, the concentration at 10 h [8] was 1460 nM and the concentration at 10 h [9] was 1040 nM. It also gave a concentration at 10 h [10] of 1530 nM, a concentration at 12 h [6] of 2210 nM and a concentration at 12 h [7] of 1380 nM. The concentration at 12 h [8] was 1210 nM, the concentration at 12 h [9] was 959 nM and the concentration at 12 h [10] was 1320 nM. It also gave a concentration at 24 h (80 mg, BI 187004 plasma concentrations, 80 mg single oral, planned time 24 h, Max) of 1560 nM and a concentration at 24 h (80 mg, BI 187004 plasma concentrations, 80 mg single oral, planned time 24 h, Mean) of 927 nM.
